Test results as given in US20140107109A1, “AMINO-DIHYDROTHIAZINE AND AMINO-DIOXIDO DIHYDROTHIAZINE COMPOUNDS AS BETA-SECRETASE ANTAGONISTS AND METHODS OF USE” (Amgen Inc., priority 2012, published 2014).
Where two headings read alike, the source gives them in different places.

Assays:
[1] = molecular target: T1, Cathepsin D (Cat D) (Homo sapiens, UniProt P07339); experiment: In vitro enzymatic Cathepsin D (Cat D) FRET assay; type: biochemical; conditions: read-out: CatD IC50
T1 construct: Recombinant Cat D was expressed in CHO cells; made in house; host or cells: CHO cells
T1 sequence (P07339 65-412, species assumed): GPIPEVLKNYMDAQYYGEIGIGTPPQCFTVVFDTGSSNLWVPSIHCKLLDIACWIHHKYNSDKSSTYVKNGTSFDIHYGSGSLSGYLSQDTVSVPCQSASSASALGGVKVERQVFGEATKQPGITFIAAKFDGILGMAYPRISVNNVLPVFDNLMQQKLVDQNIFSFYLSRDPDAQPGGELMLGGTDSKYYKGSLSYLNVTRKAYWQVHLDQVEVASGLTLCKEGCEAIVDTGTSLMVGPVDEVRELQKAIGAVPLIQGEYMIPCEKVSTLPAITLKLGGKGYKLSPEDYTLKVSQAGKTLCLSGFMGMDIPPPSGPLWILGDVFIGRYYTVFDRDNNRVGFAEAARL
Method in brief: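 FRET read-out: a fluorophore/quencher-labelled peptide substrate is cleaved by 9 nM Cat D (recombinant, CHO-expressed) following a one-hour preincubation with inhibitor dilutions in DMSO. Tris buffer added to neutralize pH ends the reaction before fluorescence measurement.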

[2] = tested on: Aβ40 in conditioned medium of cells stably expressing Amyloid Precursor Protein (APP); experiment: In vitro BACE cell-based assay (HEK cell assay), Aβ40 sandwich ELISA
Method in brief: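 Aβ40 in conditioned medium was quantified by time-resolved fluorescence sandwich ELISA (pAb40 capture 3 h at 4 °C, biotin-6E10 detection 2 h at 4 °C) after 24 h compound exposure of APP-expressing cells. Doses spanned 10 points from 100 μM or 10 μM top, 0.1% DMSO; IC50 was derived from percent of control.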

[3] = molecular target: Beta Secretase enzyme (BACE1) (Homo sapiens, UniProt P56817); experiment: In vitro enzymatic BACE FRET assay; type: biochemical; conditions: read-out: BACE1 FRET assay IC50
Beta Secretase enzyme (BACE1), sequence (P56817 46-501): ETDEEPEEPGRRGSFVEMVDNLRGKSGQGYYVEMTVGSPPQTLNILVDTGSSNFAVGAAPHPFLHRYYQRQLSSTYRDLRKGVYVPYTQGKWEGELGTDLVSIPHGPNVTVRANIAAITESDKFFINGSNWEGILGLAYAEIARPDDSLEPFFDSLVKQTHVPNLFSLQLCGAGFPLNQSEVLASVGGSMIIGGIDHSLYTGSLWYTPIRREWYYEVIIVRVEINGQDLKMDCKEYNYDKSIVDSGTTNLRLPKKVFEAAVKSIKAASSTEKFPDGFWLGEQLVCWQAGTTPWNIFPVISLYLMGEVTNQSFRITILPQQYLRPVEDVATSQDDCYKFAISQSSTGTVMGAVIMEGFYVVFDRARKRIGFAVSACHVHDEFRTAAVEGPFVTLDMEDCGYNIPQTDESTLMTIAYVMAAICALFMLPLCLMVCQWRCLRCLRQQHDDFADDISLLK
Method in brief: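 Readout: dequenched fluorescence (ex 488 nm/[…]) after neutralizing with Tris buffer. Reactions, begun by adding 50 nM quenched peptide substrate spanning the BACE cleavage site, were incubated one hour at pH 4.2 in 0.05 M acetate with 100 uM genapol and 10% final DMSO.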

[4] = Homo sapiens, HEK293, average IC50, cell assay
[5] = Homo sapiens, HEK293, average IC50, HEK cell assay
[6] = Homo sapiens, HEK293, Aβ40, 24 h incubation

| IC50 [1] | IC50 [2, 4] | IC50 ([3]; average IC50, enzyme assay) | IC50 ([2]; Homo sapiens, HEK293) | IC50 [3] | IC50 ([2]; average IC50, cell assay) | IC50 [2, 5] | Compound | IC50 [2, 6] |
| --- | --- | --- | --- | --- | --- | --- | --- | --- |
| 222 µM |  | 0.00064 µM |  |  |  | 0.0046 µM | Cc1cc(C#N)cnc1C(=O)Nc1ccc(F)c([C@]2(CF)CS(=O)(=O)C3(CCC3)C(N)=N2)c1 [Example 368, N-(3-((7S)-9-amino-7-(fluoromethyl)-5,5-dioxido-5-thia-8-azaspiro[3.5]non-8-en-7-yl)-4-fluorophenyl)-5-cyano-3-methyl-2-pyridinecarboxamide] |  |
| > 14.8 µM |  | 0.00052 µM |  |  |  | 0.0027 µM | COCc1cc(Cl)cnc1C(=O)Nc1ccc(F)c([C@]2(C)CS(=O)(=O)C(C)(C)C(N)=N2)c1 [Example 351, N-(3-((3R)-5-amino-3,6,6-trimethyl-1,1-dioxido-3,6-dihydro-2H-1,4-thiazin-3-yl)-4-fluorophenyl)-5-chloro-3-(methoxymethyl)-2-pyridinecarboxamide] |  |
| 389 µM | 0.0319 µM | 0.00322 µM |  |  |  |  | CC1(C)C(N)=N[C@](C)(c2cc(Nc3nccc4nc(OCC(F)(F)F)cnc34)ccc2F)CS1(=O)=O [Example 442, N-(3-((3R)-5-amino-3,6,6-trimethyl-1,1-dioxido-3,6-dihydro-2H-1,4-thiazin-3-yl)-4-fluorophenyl)-2-(2,2,2-trifluoroethoxy)pyrido[3,4-b]pyrazin-5-amine] |  |
| 119 µM | 0.787 µM | 0.228 µM |  |  |  |  | CC#Cc1ccnc(Oc2ccc(F)c([C@]3(C)CS(=O)(=O)C(C)(C)C(N)=N3)c2)c1 [Example 286, (5R)-5-(2-fluoro-5-((4-(1-propyn-1-yl)-2-pyridinyl)oxy)phenyl)-2,2,5-trimethyl-5,6-dihydro-2H-1,4-thiazin-3-amine 1,1-dioxide] |  |
| 82.4 µM |  | 0.174 µM |  |  |  | 0.796 µM | CC1(C)C(N)=N[C@](C)(c2cc(Oc3ncc(Cl)cc3Cl)ccc2F)CS1(=O)=O [Example 299, (5R)-5-(5-((3,5-dichloro-2-pyridinyl)oxy)-2-fluorophenyl)-2,2,5-trimethyl-5,6-dihydro-2H-1,4-thiazin-3-amine 1,1-dioxide] |  |
| 234 µM |  | 0.00511 µM |  |  |  | 0.0107 µM | CC1(C)C(N)=N[C@](C)(c2cc(NC(=O)c3cc4ccccc4cn3)ccc2F)CS1(=O)=O [Example 343, N-(3-((3R)-5-amino-3,6,6-trimethyl-1,1-dioxido-3,6-dihydro-2H-1,4-thiazin-3-yl)-4-fluorophenyl)-3-isoquinolinecarboxamide] |  |
| 979 µM |  | 0.00277 µM |  |  |  | 0.0597 µM | C[C@]1(F)C(N)=N[C@](C)(c2cc(NC(=O)c3ncc(C(F)F)cc3Cl)ccc2F)CS1(=O)=O [Example 326, N-(3-((3R,6R)-5-amino-6-fluoro-3,6-dimethyl-1,1-dioxido-3,6-dihydro-2H-1,4-thiazin-3-yl)-4-fluorophenyl)-3-chloro-5-(difluoromethyl)-2-pyridinecarboxamide] |  |
| > 400 µM |  |  | 0.0273 µM | 0.00081 µM |  |  | COCc1cc(Cl)cnc1C(=O)Nc1ccc(F)c([C@]2(CF)CS(=O)(=O)C3(CCC3)C(N)=N2)c1 [Example 370, N-(3-((7S)-9-amino-7-(fluoromethyl)-5,5-dioxido-5-thia-8-azaspiro[3.5]non-8-en-7-yl)-4-fluorophenyl)-5-chloro-3-(methoxymethyl)-2-pyridinecarboxamide] |  |
| 598 µM |  | 0.00051 µM |  |  |  | 0.0928 µM | COCc1cc(Cl)cnc1C(=O)Nc1ccc(F)c([C@]2(C)CS(=O)(=O)[C@@](C)(F)C(N)=N2)c1 [Example 328, N-(3-((3R,6R)-5-amino-6-fluoro-3,6-dimethyl-1,1-dioxido-3,6-dihydro-2H-1,4-thiazin-3-yl)-4-fluorophenyl)-5-chloro-3-(methoxymethyl)-2-pyridinecarboxamide] |  |
| 523 µM |  |  | 3.25 µM | 3.04 µM |  |  | Cc1nc(F)c([C@]2(C)CS(=O)(=O)C(C)(C)C(N)=N2)cc1NC(=O)c1ccc(Cl)cn1 [Example 397, N-(5-((3R)-5-amino-3,6,6-trimethyl-1,1-dioxido-3,6-dihydro-2H-1,4-thiazin-3-yl)-6-fluoro-2-methyl-3-pyridinyl)-5-chloro-2-pyridinecarboxamide] |  |
| > 400 µM |  | 0.00097 µM |  |  |  | 0.0447 µM | CC1(C)C(N)=N[C@](CF)(c2cc(NC(=O)c3cnc(OCCF)cn3)ccc2F)CS1(=O)=O [Example 365, N-(3-((3S)-5-amino-3-(fluoromethyl)-6,6-dimethyl-1,1-dioxido-3,6-dihydro-2H-1,4-thiazin-3-yl)-4-fluorophenyl)-5-(2-fluoroethoxy)-2-pyrazinecarboxamide] |  |

Second part, the compound before the results:

| Compound | IC50 [1] | IC50 [2, 4] | IC50 ([3]; average IC50, enzyme assay) | IC50 ([2]; Homo sapiens, HEK293) | IC50 [3] | IC50 ([2]; average IC50, cell assay) | IC50 [2, 5] | IC50 [2, 6] |
| --- | --- | --- | --- | --- | --- | --- | --- | --- |
| Cc1c(C(=O)Nc2ccc(F)c([C@]3(CF)CS(=O)(=O)C(C)(C)C(N)=N3)c2)nc2ccc(Cl)cn12 [Example 158, (S)—N-(3-(5-amino-3-(fluoromethyl)-6,6-dimethyl-1,1-dioxido-3,6-dihydro-2H-1,4-thiazin-3-yl)-4-fluorophenyl)-6-chloro-3-methylimidazo[1,2-a]pyridine-2-carboxamide] | 4060 µM | 0.0106 µM | 0.00303 µM |  |  |  |  |  |
| C[C@]1(c2cc(NC(=O)c3ccc(Cl)cn3)ccc2F)N=C(N)C2(CCC2)S(=O)(=O)[C@@H]1F [Example 131, N-(3-((6S,7R)-9-amino-6-fluoro-7-methyl-5,5-dioxido-5-thia-8-azaspiro[3.5]non-8-en-7-yl)-4-fluorophenyl)-5-chloropicolinamide] | 162 µM |  |  | 0.00901 µM | 0.0016 µM |  |  |  |
| N-(3-((4aR,7aS)-3-amino-2,2-dimethyl-1,1-dioxido-7,7a-dihydro-2H-furo[3,4-b][1,4]thiazin-4a(5H)-yl)-4-fluorophenyl)-5-chloro-3-methyl-2-pyridinecarboxamide, N-(3-((4aS,7aR)-3-amino-2,2-dimethyl-1,1-dioxido-7,7a-dihydro-2H-furo[3,4-b][1,4]thiazin-4a(5H)-yl)-4-fluorophenyl)-5-chloro-3-methyl-2-pyridinecarboxamide [Example 427] | 220 µM |  | 0.001 µM |  |  | 0.033 µM |  |  |
| CC#CCOc1cnc2c(Nc3ccc(F)c([C@]4(C)CS(=O)(=O)[C@@](C)(F)C(N)=N4)c3)nccc2c1 [Example 226, N-(3-((3R,6R)-5-amino-6-fluoro-3,6-dimethyl-1,1-dioxido-3,6-dihydro-2H-1,4-thiazin-3-yl)-4-fluorophenyl)-3-(2-butyn-1-yloxy)-1,7-naphthyridin-8-amine] | > 400 µM | 0.00574 µM | 0.00074 µM |  |  |  |  |  |
| COc1cnc(C(=O)Nc2ccc(F)c([C@@]3(C)N=C(N)C4(CCC4)S(=O)(=O)[C@@H]3F)c2)c(C)c1 [Example 137, N-(3-((6S,7R)-9-amino-6-fluoro-7-methyl-5,5-dioxido-5-thia-8-azaspiro[3.5]non-8-en-7-yl)-4-fluorophenyl)-5-methoxy-3-methylpicolinamide] | 81.3 µM |  |  | 0.0064 µM | 0.00363 µM |  |  |  |
| CC1(c2cc(NC(=O)c3ccc(Cl)cn3)cc(F)c2F)CS(=O)(=O)C(C)(C)C(N)=N1 (stereo not drawn) [Example 35, N-(3-(-5-amino-3,6,6-trimethyl-1,1-dioxido-3,6-dihydro-2H-1,4-thiazin-3-yl)-4,5-difluorophenyl)-5-chloro-2-pyridinecarboxamide] | 99.8 µM |  |  |  | 0.0027 µM |  |  | 0.0122 µM |
| Cc1c(CNc2ccc(F)c([C@]3(C)CS(=O)(=O)C(C)(C)C(N)=N3)c2)nc2ccc(Cl)cn12 [Example 152, (R)-5-amino-3-(5-(((6-chloro-3-methylimidazo[1,2-a]pyridin-2-yl)methyl)amino)-2-fluorophenyl)-3,6,6-trimethyl-3,6-dihydro-2H-1,4-thiazine 1,1-dioxide] | 1460 µM | 0.302 µM | 2.94 µM |  |  |  |  |  |
| CC1(C)C(N)=N[C@@]2(c3cc(Nc4nccc5[nH]c(=O)cnc45)ccc3F)COC[C@H]2S1(=O)=O [Example 249, 5-((3-((4aS,7aS)-3-amino-2,2-dimethyl-1,1-dioxido-7,7a-dihydro-2H-furo[3,4-b][1,4]thiazin-4a(5H)-yl)-4-fluorophenyl)amino)pyrido[3,4-b]pyrazin-2(1H)-one] | 102 µM | 0.153 µM | 0.00636 µM |  |  |  |  |  |
| COc1cnc2c(Nc3ccc(F)c([C@]4(CF)CS(=O)(=O)C(C)(C)C(N)=N4)c3)ncc(F)c2c1 [Example 159, (S)-5-amino-3-(2-fluoro-5-((5-fluoro-3-methoxy-1,7-naphthyridin-8-yl)amino)phenyl)-3-(fluoromethyl)-6,6-dimethyl-3,6-dihydro-2H-1,4-thiazine 1,1-dioxide] | 159 µM | 0.0285 µM | 0.00055 µM |  |  |  |  |  |
| CC1(C)C(N)=N[C@@](C)(c2cc(Nc3nccc4nc(O)cnc34)cc(F)c2F)CS1(=O)=O [Example 72, (S)-5-Amino-3-(2,3-difluoro-5-((2-hydroxypyrido[3,4-b]pyrazin-5-yl)amino)phenyl)-3,6,6-trimethyl-3,6-dihydro-2H-1,4-thiazine 1,1-dioxide] | 175 µM |  |  |  | 0.505 µM |  |  | 5.35 µM |
